Results published in patent publication US10160755B2 (Plexxikon Inc., priority 2015, dated 2018).

Assays:
[1] = target: T1, FLT3-ITD (Homo sapiens, UniProt P36888); experiment: FLT3-ITD biochemical kinase assay (AlphaScreen)
T1 construct: FLT3-ITD; Invitrogen #PV6190
T1 sequence (P36888 1-993): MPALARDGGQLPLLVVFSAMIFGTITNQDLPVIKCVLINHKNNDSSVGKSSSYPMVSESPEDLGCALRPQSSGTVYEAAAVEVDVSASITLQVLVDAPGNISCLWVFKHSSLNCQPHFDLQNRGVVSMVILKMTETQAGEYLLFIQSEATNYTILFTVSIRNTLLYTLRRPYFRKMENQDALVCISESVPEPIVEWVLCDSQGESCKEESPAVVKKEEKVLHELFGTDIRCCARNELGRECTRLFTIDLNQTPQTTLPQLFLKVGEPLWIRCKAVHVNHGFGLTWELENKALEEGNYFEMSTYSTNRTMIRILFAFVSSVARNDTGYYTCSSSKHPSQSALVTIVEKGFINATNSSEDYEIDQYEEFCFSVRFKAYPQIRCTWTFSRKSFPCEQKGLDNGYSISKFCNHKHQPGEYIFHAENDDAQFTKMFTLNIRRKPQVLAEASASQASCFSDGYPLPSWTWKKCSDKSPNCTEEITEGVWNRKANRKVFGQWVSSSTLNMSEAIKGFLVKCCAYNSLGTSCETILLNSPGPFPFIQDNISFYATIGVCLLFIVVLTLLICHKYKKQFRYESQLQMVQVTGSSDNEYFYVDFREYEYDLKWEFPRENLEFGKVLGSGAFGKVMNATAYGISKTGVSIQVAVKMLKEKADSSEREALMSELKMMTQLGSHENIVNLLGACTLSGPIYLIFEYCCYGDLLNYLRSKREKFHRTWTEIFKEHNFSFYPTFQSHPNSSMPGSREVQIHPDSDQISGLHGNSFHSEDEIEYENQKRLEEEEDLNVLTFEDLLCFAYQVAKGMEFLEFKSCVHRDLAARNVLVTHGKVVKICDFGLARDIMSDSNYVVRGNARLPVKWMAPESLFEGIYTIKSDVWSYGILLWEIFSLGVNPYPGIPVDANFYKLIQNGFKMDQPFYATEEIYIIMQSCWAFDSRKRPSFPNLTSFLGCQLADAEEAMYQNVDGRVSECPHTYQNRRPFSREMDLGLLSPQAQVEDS
Method in brief: (§1)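 First, recombinant FLT3 variant phosphorylates a biotinylated poly(Glu4-Tyr) peptide (30 nM) with ATP at 10 μM (D835Y) or 100 μM (ITD). Streptavidin donor beads are then added for 20 min at room temperature, followed by anti-phosphotyrosine PY20 acceptor beads for 60 min. Signal at 580 nm gives IC50.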

[2] = target: T2, FLT3-D835Y (Homo sapiens, UniProt P36888, D835Y); experiment: FLT3-D835Y biochemical kinase assay (AlphaScreen)
T2 construct: purchased Invitrogen PV3967
T2 sequence (P36888 27-993 D835Y): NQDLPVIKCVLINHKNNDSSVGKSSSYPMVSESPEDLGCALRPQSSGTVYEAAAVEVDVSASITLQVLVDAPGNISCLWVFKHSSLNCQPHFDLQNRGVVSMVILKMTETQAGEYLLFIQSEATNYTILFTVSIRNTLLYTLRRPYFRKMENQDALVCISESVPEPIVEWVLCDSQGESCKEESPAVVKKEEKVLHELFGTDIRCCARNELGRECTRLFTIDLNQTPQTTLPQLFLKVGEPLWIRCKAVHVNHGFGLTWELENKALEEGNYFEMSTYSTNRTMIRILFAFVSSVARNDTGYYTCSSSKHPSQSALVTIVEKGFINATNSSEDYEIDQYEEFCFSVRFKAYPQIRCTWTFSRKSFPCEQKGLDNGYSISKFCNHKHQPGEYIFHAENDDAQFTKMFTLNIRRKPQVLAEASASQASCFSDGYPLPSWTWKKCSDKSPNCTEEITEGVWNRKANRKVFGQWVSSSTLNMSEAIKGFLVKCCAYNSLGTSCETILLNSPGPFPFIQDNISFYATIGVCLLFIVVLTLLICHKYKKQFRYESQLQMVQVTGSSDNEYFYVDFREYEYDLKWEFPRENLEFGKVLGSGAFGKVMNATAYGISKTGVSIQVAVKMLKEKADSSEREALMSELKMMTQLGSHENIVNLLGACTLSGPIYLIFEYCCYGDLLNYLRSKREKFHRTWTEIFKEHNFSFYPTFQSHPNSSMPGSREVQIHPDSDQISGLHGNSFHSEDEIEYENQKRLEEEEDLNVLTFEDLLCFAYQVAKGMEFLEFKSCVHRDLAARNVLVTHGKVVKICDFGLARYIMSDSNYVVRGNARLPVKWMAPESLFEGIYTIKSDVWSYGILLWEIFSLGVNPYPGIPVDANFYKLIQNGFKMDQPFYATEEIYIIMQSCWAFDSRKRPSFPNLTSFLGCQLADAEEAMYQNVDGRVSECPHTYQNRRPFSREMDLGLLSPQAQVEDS
Method in brief: as §1

Structure (SMILES) | IC50 [1] [µM] | IC50 [2] [µM]
COc1cc(-c2cnc3[nH]cc(-c4ccc5ncn(C(C)(C)CO)c5c4)c3n2)ccn1 [P-186, 2-[6-[2-(2-methoxy-4-pyridyl)-5H-pyrrolo[2,3-b]pyrazin-7-yl]benzimidazol-1-yl]-2-methyl-propan-1-ol] | 0.0001 to 1 | 0.0001 to 1
c1cc(N2CCOCC2)ccc1-c1cnc2[nH]cc(-c3ccc4ncn(C5CCCNC5)c4c3)c2n1 (stereo not shown) [P-101, 4-[4-[7-[3-(3-piperidyl)benzimidazol-5-yl]-5H-pyrrolo[2,3-b]pyrazin-2-yl]phenyl]morpholine] | 0.0001 to 1 | 0.0001 to 1
COc1cnc2[nH]cc(-c3ccc4ncn(-c5ccc(Cl)cc5)c4c3)c2c1 [P-104, 1-(4-chlorophenyl)-6-(5-methoxy-1H-pyrrolo[2,3-b]pyridin-3-yl)benzimidazole] | 0.0001 to 1 | 0.0001 to 1
COc1cnc2[nH]cc(-c3ccc4ncn(-c5ccc(F)c(C)c5)c4c3)c2c1 [P-129, 1-(4-fluoro-3-methyl-phenyl)-6-(5-methoxy-1H-pyrrolo[2,3-b]pyridin-3-yl)benzimidazole] | 0.0001 to 1 | 0.0001 to 1
CC(C)(C)n1cnc2ccc(-c3c[nH]c4ncc(-c5cccc(N6CCOCC6)c5)nc34)cc21 [P-226, 4-[3-[7-(3-tert-butylbenzimidazol-5-yl)-5H-pyrrolo[2,3-b]pyrazin-2-yl]phenyl]morpholine] | 0.0001 to 1 | 0.0001 to 1
O=S(=O)(c1cccc(-c2cnc3[nH]cc(-c4ccc5ncn(C6CCCNC6)c5c4)c3c2)c1)N1CCCC1 (stereo not shown) [P-222, 1-(3-piperidyl)-6-[5-(3-pyrrolidin-1-ylsulfonylphenyl)-1H-pyrrolo[2,3-b]pyridin-3-yl]benzimidazole] | 0.0001 to 1 | 0.0001 to 1
CCCS(=O)(=O)Nc1cccc(-c2cnc3[nH]cc(-c4ccc5ncn(C6CCCNC6)c5c4)c3c2)c1 (stereo not shown) [P-217, N-[3-[3-[3-(3-piperidyl)benzimidazol-5-yl]-1H-pyrrolo[2,3-b]pyridin-5-yl]phenyl]propane-1-sulfonamide] | 0.0001 to 1 | 0.0001 to 1
FC(F)(F)Oc1cccc(-c2cnc3[nH]cc(-c4ccc5ncn(C6CCCNC6)c5c4)c3n2)c1 (stereo not shown) [P-193, 7-[3-(3-piperidyl)benzimidazol-5-yl]-2-[3-(trifluoromethoxy)phenyl]-5H-pyrrolo[2,3-b]pyrazine] | 0.0001 to 1 | 0.0001 to 1

Further lines, results first:

IC50 [1] [µM] | IC50 [2] [µM] | Structure (SMILES)
0.0001 to 1 | 0.0001 to 1 | COc1cc(-c2cnc3[nH]nc(-c4ccc5ncn(C(C)(C)C)c5c4)c3c2)ccn1 [P-272, 3-(1-(tert-butyl)-1H-benzo[d]imidazol-6-yl)-5-(2-methoxypyridin-4-yl)-1H-pyrazolo[3,4-b]pyridine]
0.0001 to 1 | 0.0001 to 1 | CC(C)(C)n1cnc2ccc(-c3c[nH]c4ncc(-c5cnn(CC(F)(F)F)c5)nc34)cc21 [P-256, 7-(3-tert-butylbenzimidazol-5-yl)-2-[1-(2,2,2-trifluoroethyl)pyrazol-4-yl]-5H-pyrrolo[2,3-b]pyrazine]
0.0001 to 1 | 0.0001 to 1 | COc1ncc(-c2cnc3[nH]cc(-c4ccc5ncn(C(C)(C)C)c5c4)c3n2)cn1 [P-263, 7-(3-tert-butylbenzimidazol-5-yl)-2-(2-methoxypyrimidin-5-yl)-5H-pyrrolo[2,3-b]pyrazine]
0.0001 to 1 | 0.0001 to 1 | CC(C)(C)n1cnc2ccc(-c3c[nH]c4ncc(-c5ccnc(N6CCOCC6)c5)nc34)cc21 [P-228, 4-[4-[7-(3-tert-butylbenzimidazol-5-yl)-5H-pyrrolo[2,3-b]pyrazin-2-yl]-2-pyridyl]morpholine]
0.0001 to 1 | 0.0001 to 1 | C#Cc1cnc2[nH]cc(-c3ccc4ncn(C5CCCNC5)c4c3)c2n1 (stereo not shown) [P-270, 2-ethynyl-7-[3-(3-piperidyl)benzimidazol-5-yl]-5H-pyrrolo[2,3-b]pyrazine]
0.0001 to 1 | 0.0001 to 1 | c1cc(-c2cnc3[nH]cc(-c4ccc5ncn(C6CCCNC6)c5c4)c3n2)cc(N2CCOCC2)n1 (stereo not shown) [P-262, 4-[4-[7-[3-(3-piperidyl)benzimidazol-5-yl]-5H-pyrrolo[2,3-b]pyrazin-2-yl]-2-pyridyl]morpholine]
0.0001 to 1 | 0.0001 to 1 | COc1ncccc1C#Cc1cnc2[nH]cc(-c3ccc4ncn(C(C)(C)C)c4c3)c2n1 [P-250, 7-(3-tert-butylbenzimidazol-5-yl)-2-[2-(2-methoxy-3-pyridyl)ethynyl]-5H-pyrrolo[2,3-b]pyrazine]
0.0001 to 1 | 0.0001 to 1 | COc1cc(C#Cc2cnc3[nH]cc(-c4ccc5ncn(C6CCCNC6)c5c4)c3c2)ccn1 (stereo not shown) [P-241, 5-[2-(2-methoxy-4-pyridyl)ethynyl]-3-[3-(3-piperidyl)benzimidazol-5-yl]-1H-pyrrolo[2,3-b]pyridine]
0.0001 to 1 | 0.0001 to 1 | O=S1(=O)CCCN1c1cccc(-c2cnc3[nH]cc(-c4ccc5ncn(C6CCCNC6)c5c4)c3n2)c1 (stereo not shown) [P-273, 2-[3-[7-[3-(3-piperidyl)benzimidazol-5-yl]-5H-pyrrolo[2,3-b]pyrazin-2-yl]phenyl]-1,2-thiazolidine 1,1-dioxide]
0.0001 to 1 | 0.0001 to 1 | CC(C)n1cnc2ccc(-c3c[nH]c4ncc(-c5cnn(C(F)F)c5)cc34)cc21 [P-267, 5-[1-(difluoromethyl)pyrazol-4-yl]-3-(3-isopropylbenzimidazol-5-yl)-1H-pyrrolo[2,3-b]pyridine]
0.0001 to 1 | 0.0001 to 1 | CC(C)(C)n1cnc2ccc(-c3c[nH]c4ncc(-c5cnn(CC(F)(F)F)c5)cc34)cc21 [P-252, 1-tert-butyl-6-[5-[1-(2,2,2-trifluoroethyl)pyrazol-4-yl]-1H-pyrrolo[2,3-b]pyridin-3-yl]benzimidazole]
0.0001 to 1 | 0.0001 to 1 | CC(C)(C)n1cnc2ccc(-c3c[nH]c4ncc(-c5cnn(C(F)F)c5)cc34)cc21 [P-251, 1-tert-butyl-6-[5-[1-(difluoromethyl)pyrazol-4-yl]-1H-pyrrolo[2,3-b]pyridin-3-yl]benzimidazole]
